The structures appear in SMILES notation.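 Following 48 hours of exposure in 96-well plates, responses at five concentrations were used to interpolate endpoints linearly. The concentration for full growth arrest is given as TGI.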

One experiment relates to CAKI-1 renal. As to the kind of experiment: growth of human tumour cells (NCI), 48 h.
In the case of `CN1CCc2c(sc3ncn(C)c(=N)c23)C1`, the TGI is more than 100 µM.

In turn, `N#CC1=C(Nc2ccccc2)SC=C(c2ccccc2)NC1=NCc1ccccc1` showed a TGI of more than 100 µM.

For `COC(=O)c1c(C#N)[nH]c(-c2ccsc2)c1C(=O)OC`, the TGI is more than 100 µM.

Regarding `Cc1cc(C)c2c(c1)C/C(=C\c1ccccc1C(=O)O)C2=O`, the TGI is more than 100 µM.

Take `COc1ccc(NC(=O)N(C)CC2(O)CCC(C(C)(C)C)CC2)cc1` (stereo not given): the TGI was found to be 10.3 µM.

As to `[N-]=[N+]=NC1C(O)C(CO)OC1n1ccc(=O)[nH]c1=O` (stereo not given), the TGI is more than 875 µM.

`CN(C)CCNC(=O)c1ccc2nc3c(nc2c1)C(=O)c1ccccc1-3` yielded a TGI of more than 100 µM.

The subject of a further experiment is HCC-2998 colon. Nature of the experiment: growth of human tumour cells (NCI), 48 h.
The compound `C#CC(C)(C)OC(=O)C(=[N+]=[N-])C(C)=O` showed a TGI of more than 10 µM.

The compound `CCCCCC(=O)CCCCCCCC(O)CC(=O)OCC` (stereo not given) registered a TGI of more than 100 µM.

In turn, `O=S1(=O)Cc2ccc3c4c2-c2c(ccc5ccc(c-4c25)CS(=O)(=O)C3)C1` showed a TGI of more than 100 µM.

`Cc1cc(C)c2c(c1)C/C(=C\c1ccccc1C(=O)O)C2=O`: the TGI was more than 100 µM.

In turn, `CCC(=O)O[C@H]1CC[C@H]2[C@@H]3CCC4=C/C(=N/OC(=O)c5cccc6c(=O)c7ccccc7[nH]c56)CC[C@]4(C)[C@H]3CC[C@]12C` gave a TGI of 41.2 µM.

As to `[N-]=[N+]=Nc1cc(=O)[nH]nc1-c1ccccc1`, the TGI was more than 100 µM.

`[N-]=[N+]=NC1C(O)C(CO)OC1n1ccc(=O)[nH]c1=O` (stereo not given) showed a TGI of more than 875 µM.

`CN(C)CCNC(=O)c1ccc2nc3c(nc2c1)C(=O)c1ccccc1-3` yielded a TGI of more than 100 µM.

A further experiment relates to HCT-116 colon. Nature of the experiment: growth of human tumour cells (NCI), 48 h.
Compound `Fc1ccc(C(=C2CCN(CCc3ccc4[nH]c(=S)[nH]c4c3)CC2)c2ccc(F)cc2)cc1` came in with a TGI of 3.47 µM.

With `C#CC(C)(C)OC(=O)C(=[N+]=[N-])C(C)=O`, the TGI is more than 10 µM.

`CC(C)N(C(=O)C1(O)c2ccccc2C=Cc2ccccc21)C(C)C` registered a TGI of 32.8 µM.

Compound `CCOC(=O)C1(C/C=C/CBr)CCc2ccccc2C1=O` (stereo not given) came in with a TGI of 26.2 µM.

With `COc1cc(C(C)=O)cc(C(=O)N(C(C)C)C(C)C)c1[Si](C)(C)C`, the TGI is more than 100 µM.

On to `CCCCCC(=O)CCCCCCCC(O)CC(=O)OCC` (stereo not given), for which the TGI is more than 100 µM.

`CN1CCc2c(sc3ncn(C)c(=N)c23)C1`: the TGI is more than 100 µM.

Regarding `O=S1(=O)Cc2ccc3c4c2-c2c(ccc5ccc(c-4c25)CS(=O)(=O)C3)C1`, the TGI is more than 100 µM.

The compound `N#CC1=C(Nc2ccccc2)SC=C(c2ccccc2)NC1=NCc1ccccc1` gave a TGI of more than 100 µM.

With `COC(=O)c1c(C#N)[nH]c(-c2ccsc2)c1C(=O)OC`, the TGI is more than 100 µM.

Compound `Cc1cc(C)c2c(c1)C/C(=C\c1ccccc1C(=O)O)C2=O` registered a TGI of more than 100 µM.

For the compound `[N-]=[N+]=Nc1cc(=O)[nH]nc1-c1ccccc1`, the TGI is more than 100 µM.

As to `COc1ccc(NC(=O)N(C)CC2(O)CCC(C(C)(C)C)CC2)cc1` (stereo not given), the TGI was more than 100 µM.

Turning to `[N-]=[N+]=NC1C(O)C(CO)OC1n1ccc(=O)[nH]c1=O` (stereo not given), the TGI was more than 875 µM.

For `CN(C)CCNC(=O)c1ccc2nc3c(nc2c1)C(=O)c1ccccc1-3`, the TGI was more than 100 µM.

The subject of another experiment is RXF 393 renal. Nature of the experiment: growth of human tumour cells (NCI), 48 h.
Turning to `Fc1ccc(C(=C2CCN(CCc3ccc4[nH]c(=S)[nH]c4c3)CC2)c2ccc(F)cc2)cc1`, the TGI worked out at 3.49 µM.

Take `C#CC(C)(C)OC(=O)C(=[N+]=[N-])C(C)=O`: the TGI is more than 10 µM.

Regarding `CCOC(=O)C1(C/C=C/CBr)CCc2ccccc2C1=O` (stereo not given), the TGI was 18.4 µM.

Compound `CN1CCc2c(sc3ncn(C)c(=N)c23)C1` returned a TGI of more than 100 µM.

In turn, `N#CC1=C(Nc2ccccc2)SC=C(c2ccccc2)NC1=NCc1ccccc1` registered a TGI of more than 100 µM.

Take `COC(=O)c1c(C#N)[nH]c(-c2ccsc2)c1C(=O)OC`: the TGI was more than 100 µM.

Consider `Cc1cc(C)c2c(c1)C/C(=C\c1ccccc1C(=O)O)C2=O`, for which the TGI is more than 100 µM.

As to `CCC(=O)O[C@H]1CC[C@H]2[C@@H]3CCC4=C/C(=N/OC(=O)c5cccc6c(=O)c7ccccc7[nH]c56)CC[C@]4(C)[C@H]3CC[C@]12C`, the TGI stood at 45.4 µM.

For the compound `[N-]=[N+]=Nc1cc(=O)[nH]nc1-c1ccccc1`, the TGI is more than 100 µM.

In turn, `COc1ccc(NC(=O)N(C)CC2(O)CCC(C(C)(C)C)CC2)cc1` (stereo not given) had a TGI of 92.9 µM.

With `CN(C)CCNC(=O)c1ccc2nc3c(nc2c1)C(=O)c1ccccc1-3`, the TGI is more than 100 µM.

A further experiment relates to MDA-N. Nature of the experiment: growth of human tumour cells (NCI), 48 h.
On to `Fc1ccc(C(=C2CCN(CCc3ccc4[nH]c(=S)[nH]c4c3)CC2)c2ccc(F)cc2)cc1`, for which the TGI came out at 4.81 µM.

For `C#CC(C)(C)OC(=O)C(=[N+]=[N-])C(C)=O`, the TGI was more than 10 µM.

Regarding `CC(C)N(C(=O)C1(O)c2ccccc2C=Cc2ccccc21)C(C)C`, the TGI was found to be 37.9 µM.

Turning to `CCOC(=O)C1(C/C=C/CBr)CCc2ccccc2C1=O` (stereo not given), the TGI is 30.3 µM.

For `COc1cc(C(C)=O)cc(C(=O)N(C(C)C)C(C)C)c1[Si](C)(C)C`, the TGI is more than 100 µM.

In turn, `CCCCCC(=O)CCCCCCCC(O)CC(=O)OCC` (stereo not given) gave a TGI of more than 100 µM.

The compound `CN1CCc2c(sc3ncn(C)c(=N)c23)C1` gave a TGI of more than 100 µM.

On to `O=S1(=O)Cc2ccc3c4c2-c2c(ccc5ccc(c-4c25)CS(=O)(=O)C3)C1`, for which the TGI was more than 100 µM.

As to `N#CC1=C(Nc2ccccc2)SC=C(c2ccccc2)NC1=NCc1ccccc1`, the TGI was more than 100 µM.

With `COC(=O)c1c(C#N)[nH]c(-c2ccsc2)c1C(=O)OC`, the TGI is more than 100 µM.

In the case of `Cc1cc(C)c2c(c1)C/C(=C\c1ccccc1C(=O)O)C2=O`, the TGI was more than 100 µM.

Compound `CCC(=O)O[C@H]1CC[C@H]2[C@@H]3CCC4=C/C(=N/OC(=O)c5cccc6c(=O)c7ccccc7[nH]c56)CC[C@]4(C)[C@H]3CC[C@]12C` returned a TGI of more than 100 µM.

On to `[N-]=[N+]=Nc1cc(=O)[nH]nc1-c1ccccc1`, for which the TGI was more than 100 µM.

Consider `COc1ccc(NC(=O)N(C)CC2(O)CCC(C(C)(C)C)CC2)cc1` (stereo not given), for which the TGI is more than 100 µM.

As to `[N-]=[N+]=NC1C(O)C(CO)OC1n1ccc(=O)[nH]c1=O` (stereo not given), the TGI was more than 875 µM.

Take `CN(C)CCNC(=O)c1ccc2nc3c(nc2c1)C(=O)c1ccccc1-3`: the TGI worked out at 33.6 µM.

A further experiment concerns SF-539 CNS. As to the kind of experiment: growth of human tumour cells (NCI), 48 h.
As to `Fc1ccc(C(=C2CCN(CCc3ccc4[nH]c(=S)[nH]c4c3)CC2)c2ccc(F)cc2)cc1`, the TGI came out at 7.74 µM.

`C#CC(C)(C)OC(=O)C(=[N+]=[N-])C(C)=O` showed a TGI of more than 10 µM.

Consider `CC(C)N(C(=O)C1(O)c2ccccc2C=Cc2ccccc21)C(C)C`, for which the TGI is 33.4 µM.

For `CCOC(=O)C1(C/C=C/CBr)CCc2ccccc2C1=O` (stereo not given), the TGI is 36.2 µM.

`COc1cc(C(C)=O)cc(C(=O)N(C(C)C)C(C)C)c1[Si](C)(C)C`: the TGI was more than 100 µM.

On to `CCCCCC(=O)CCCCCCCC(O)CC(=O)OCC` (stereo not given), for which the TGI is more than 100 µM.

Compound `CN1CCc2c(sc3ncn(C)c(=N)c23)C1` displayed a TGI of more than 100 µM.

`O=S1(=O)Cc2ccc3c4c2-c2c(ccc5ccc(c-4c25)CS(=O)(=O)C3)C1` had a TGI of more than 100 µM.

In the case of `N#CC1=C(Nc2ccccc2)SC=C(c2ccccc2)NC1=NCc1ccccc1`, the TGI was more than 100 µM.

The compound `Cc1cc(C)c2c(c1)C/C(=C\c1ccccc1C(=O)O)C2=O` registered a TGI of more than 100 µM.

`CCC(=O)O[C@H]1CC[C@H]2[C@@H]3CCC4=C/C(=N/OC(=O)c5cccc6c(=O)c7ccccc7[nH]c56)CC[C@]4(C)[C@H]3CC[C@]12C` returned a TGI of 39.3 µM.

As for `[N-]=[N+]=Nc1cc(=O)[nH]nc1-c1ccccc1`, the TGI was more than 100 µM.

As to `COc1ccc(NC(=O)N(C)CC2(O)CCC(C(C)(C)C)CC2)cc1` (stereo not given), the TGI is more than 100 µM.

These data come from PubChem BioAssay (NCI).
